Experimental data as given in patent publication US20090104171A1, “Metabolic Enhancement Therapy” (priority 2007, published 2009).

Tests used:
[1] = oral supplementation, patient groups; cited from earlier work
[2] = cited from earlier work
NMDA glycine site = conditions: in vivo; cited from earlier work
[3] = Case study Example 2: person with moderately functioning autism; type: in vivo, human; conditions: autistic person; for alleviation of behavioral symptoms: complete formulation
From the text: Person diagnosed with moderately functioning autism. Subject's behaviors were noteworthy for acute social withdrawal, pronounced language deficit, obsessive compulsive behaviors, acute anxiety attacks, aggression, hyperactivity, loss of concentration, fear and panic disorder, hyperactivity, depression, sleep deficit and acoustic hypersensitivity. Subject experienced loss of appetite and was underweight, although growth and sexual development was not stunted. […]

[4] = Case study Example 3: person with schizophrenia; conditions: for relief of symptoms (anxiety, obsessive compulsive behavior, psychosis): schizophrenic, formulation given while remaining on clozapine and lithium
From the text: Person diagnosed with schizophrenia. Hospitalized several times suffering from acute psychotic attack with hallucinations and paranoia. Treated with many typical and atypical antipsychotic drugs. […] Over the years, several diagnoses were given, including bipolar disorder, obsessive-compulsive disorder, affective disorder, and combinations thereof. Medications have included lithium, olanzapine, prozac, and several sleep medications. […] Patient went through years of treatment programs and weekly psychiatric sessions. Although they managed (with extreme difficulty) to obtain BA and MA degrees, paranoia and anxiety prevented them from working. Recent history. Patient has been on an atypical antipsychotic (clozapine) and high doses of lithium carbonate for the past 2 years. […] Patient started on Metabolic Enhancement Therapy with the disclosed formulation, while remaining on clozapine and lithium.

[5] = Case study Example 4: person with acute anxiety disorder and depression; conditions: 2 years of treatment
[6] = in vivo; cited from earlier work
[7] = test system: bacteria, protozoa or viruses; conditions: cited from earlier work
[8] = oral; cited from earlier work
[9] = test system: yeasts and yeast-like fungi; conditions: cited from earlier work

## CC(=O)O[C@H](CC(=O)[O-])C[N+](C)(C)C [acetyl-L-carnitine]
[1]
  effect on depression in clinical trials: effective in relieving depression

## O=C(O)c1cccnc1 [Niacin]
[2]; 2-4 g/day
  effects at pharmacologic doses: vasodilation (flushing reaction), a marked decrease in circulation fatty acids, cholesterol and lipoproteins, and an elevation of serum glucose and uric acid
[2]; in vivo
  dose without reported toxicity: up to 50 mg/day

## N[C@@H]1CONC1=O [D-cycloserine]
NMDA glycine site
  extinction of conditioned fear: augment the extinction of conditioned fear

## amoxtatine
[3]
  alleviation of behavioral symptoms: proved totally ineffective

## N[C@@H](Cc1c[nH]c2ccc(O)cc12)C(=O)O [5-hydroxytryptophan]
[1]
  effect on depression in clinical trials: only minor signs of efficacy

## C[S+](CC[C@H](N)C(=O)O)C[C@H]1O[C@@H](n2cnc3c(N)ncnc32)[C@H](O)[C@@H]1O (some centres unmarked) [S-adenosyl methionine (SAMe), S-adenosyl methionine]
[1]
  effect on depression in clinical trials: effective treatment for depression

## Cc1ncc(CO)c(CO)c1O [vitamin B6, pyridoxine]
[1]
  effect on depression in clinical trials: helps alleviate depression associated with premenstrual syndrome
[2]; in vivo
  dose reported to induce peripheral neuropathy: exceed 2,000 mg/day

## CNCCC(Oc1ccc(C(F)(F)F)cc1)c1ccccc1 (centres unmarked) [Prozac]
[4]; in vivo
  side effects induced by medication: induce tremors, rigidity, weight gain and diabetes
[4]
  relief of symptoms (anxiety, obsessive compulsive behavior, psychosis): None provided relief of symptoms
[5]
  side effects: negative side effects

## [Li] [lithium]
[4]; prior medications
  side effects induced by medication: induce tremors, rigidity, weight gain and diabetes

## NCC(=O)O [glycine]
[1]
  effect on depression in clinical trials: useful in the treatment of certain forms of bipolar depression

## secretin
[3]
  alleviation of behavioral symptoms: proved totally ineffective

## vitamin E
[2]; in vivo
  dose without reported toxicity: up to 800 mg/day

## O=C([O-])c1cc(=O)[nH]c(=O)[nH]1.[Li+] [lithium orotate]
[6]
  increase of delivery of lithium to brain by complexing with orotate: over 100 fold

## C[C@@H]1[C@H](O)[C@@H](C)/C=C/C=C/CC/C=C/C=C/C=C/C=C/C(O[C@H]2O[C@H](C)[C@@H](O)[C@H](N)[C@@H]2O)CC2O[C@](O)(CC(O)C(O)CCC(O)CC(O)CC(O)CC(=O)O[C@H]1C)CC(O)C2C(=O)O (some centres unmarked) [Nystatin]
[7]
  activity against bacteria, protozoa or viruses: no activity
[3]
  control of chronic intestinal yeast infections: effectively controlled yeast infections
[8]
  gastrointestinal absorption: insignificant
[9]
  antifungal activity: both fungistatic and fungicidal
[2]; in vivo
  tolerability / toxicity in words: generally well tolerated by all age groups

## O=C([O-])[O-].[Li+].[Li+] [lithium carbonate]
[4]
  relief of symptoms (anxiety, obsessive compulsive behavior, psychosis): Obsessive-compulsive behavior progressively deteriorated

## Cc1ncc(C[n+]2csc(CCO)c2C)c(N)n1 [Vitamin B1, Thiamine]
[2]; in vivo
  tolerability / toxicity in words: toxicities are very rare

## vitamin B12
[1]
  effect on depression in clinical trials: responsive to B12 supplementation

## Cc1cc2c(s1)Nc1ccccc1N=C2N1CCN(C)CC1 [olanzapine]
[4]; in vivo
  side effects induced by medication: induce tremors, rigidity, weight gain and diabetes
